Source: EP3156398A1, “AGONISTS OF THE CHEMOKINE RECEPTOR CXCR3” (Friedrich-Alexander-Universität Erlangen-Nürnberg, priority 2015, dated 2017)
Values joined by “and” are separate entries in the source; they are usually repeats but may differ in a detail not shown here. Identical values can stand only once. Like-named read-outs stand apart in the source and are kept apart here.

Columns and labels:
CXCR3 = target: T1, CXCR3 (Homo sapiens, UniProt P49682); assay: [35S]GTPγS incorporation assay; type: biochemical; details: for CXCR3 Efficacy (%) ± SEM / Emax: % of CXCL11 mediated effect; for CXCR3 Efficacy (%) ± SEM / Emax / CXCR3 pEC50 ± SEM / EC50: membrane preparations of HEK293T stably expressing CXCR3; for Emax: read-out: CXCR3 Efficacy (%) ± SEM; for CXCR3 pEC50 ± SEM: mean of three experiments in triplicate; for EC50: read-out: EC50 / potency in [35S]GTPγS incorporation
T1 construct: expressed in transfected cells; host or cells: HEK293 / HEK293T cells, stably transfected; membrane preparations
T1 sequence (P49682 1-368): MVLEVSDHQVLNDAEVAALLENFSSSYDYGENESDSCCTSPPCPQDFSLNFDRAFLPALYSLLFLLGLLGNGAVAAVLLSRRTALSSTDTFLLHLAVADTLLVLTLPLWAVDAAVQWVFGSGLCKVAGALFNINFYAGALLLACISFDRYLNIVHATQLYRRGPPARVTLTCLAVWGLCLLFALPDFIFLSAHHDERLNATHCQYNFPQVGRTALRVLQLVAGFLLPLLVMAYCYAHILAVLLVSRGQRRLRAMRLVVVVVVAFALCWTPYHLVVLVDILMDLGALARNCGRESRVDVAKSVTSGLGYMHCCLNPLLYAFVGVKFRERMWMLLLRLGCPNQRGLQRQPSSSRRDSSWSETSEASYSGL
Procedure: Membrane preparation for allosteric radioligand RAMX3 displacement and [^35S]GTPγS incorporation assays: The human embryonic kidney (HEK) cells stably expressing the human CXCR3 receptor were cultured in 150-mm cell culture plates in DMEM/F-12 supplemented with 10% fetal bovine serum (FBS), 2 mM L-glutamine, 1% penicillin-streptomycin, 300 µgmL^-1 Zeocin and incubated at 37 °C in a humid atmosphere with 5% CO2. At 100% confluency cells were washed with PBS twice, treated with Tris EDTA buffer (10 mM Tris, 0.5 mM EDTA, 5 mM KCl, 140 mM NaCl, pH 7.4), and harvested using a cell scraper. Cells were pelleted at 1100×g for 8 min at 4 °C, resuspended in Tris-EDTA-MgCl2 buffer (50mM Tris, 5 mM EDTA, 1.5 mM CaCl2, 5 mM MgCl2, 5 mM KCl, 120 mM NaCl, pH 7.4) and followed by lysis with an Ultra-Turrax. After centrifugation at 50,000•g, at 4°C for 18 min the membranes were resuspended in the binding buffer (50 mM Tris, 1 mM EDTA, 5 mM MgCl2 and subsequently homogenized with a glass-Teflon homogenizer (20 strokes). The homogenized membranes were shock-frozen in liquid nitrogen and stored at -80°C. The protein concentration was determined with the Lowry method with bovine serum albumin used as a standard.^35
[^35S]GTPγS incorporation assay: The [^35S]GTPγS incorporation assay was performed on membrane preparations of stably transfected HEK293 cells that expressed the CXCR3 receptor. The assay was carried out in 96-well plates at the final volume of 200 µL. The incubation buffer contained 20 mM HEPES, 10 mM MgCl2•6H20,100 mM NaCl and 100 mg/L saponin (pH 7.4). Membranes (30 µgmL^-1 of membrane protein), various concentrations of test compound and CXCL11, and 1 µM GDP were preincubated in the absence of [^35S]GTPγS for 30 min at 37 °C. After the addition of 0.10 nM [^35S]GTPγS membranes were incubated for additional 30 min at 37 °C. Incubation was terminated by filtration through Whatman GF/B filters soaked with ice cold PBS. The filter-bound radioactivity was measured as described above. Three to four experiments per compound were performed with each concentration in triplicate.
The activation of G proteins was explored in terms of CXCR3 mediated [^35S]GTPγS incorporation. In the [^35S]GTPγS incorporation assay the membrane preparations of HEK293T cells stably expressing CXCR3 were used. The activation of G proteins was monitored as the incorporation of [^35S]GTPγS and thus increase in the incorporated radioactivity. The potency and efficacy of the novel compounds was first compared to the reference compound 46/VUF10661. […] Table 1. The ability of the 46/VUF10661 based positive allosteric modulators to activate CXCR3 as measured in the [35S]GTPγS incorporation assay.[a]

CXCR3-PK1 = target: T2, CXCR3-PK1 (Homo sapiens, UniProt P49682); assay: β-arrestin 2 recruitment assay (PathHunter, DiscoveRx), CXCR3-PK1 construct; type: cell-based; details: for CXCR3-PK1 pEC50 ± SEM: HEK293-T cells, PathHunter, two to three experiments in triplicate
T2 construct: expressed in transfected cells; host or cells: HEK293 cells stably expressing beta-gal enzyme acceptor (PathHunter, DiscoveRx), transiently transfected
T2 sequence (P49682 1-368): T1 sequence (P49682 1-368)
Procedure: (§1) β-arrestin 2 recruitment assay: The measurement of β-arrestin recruitment was performed utilizing the PathHunter assay purchased from DiscoveRx (DiscoveRx, Birmingham, U.K.) according to the manufacturer's protocol. HEK293 cells stably expressing β-gal enzyme acceptor were transiently transfected with the ProLink (PK1) tagged wildtype CXCR3 receptor using the TransIT-293 transfection reagent from Mirus (purchased from MoBiTec, Goettingen, Germany). The assay was carried out in 384-well plates containing 2000 cells in 20 µL. After incubation at 37°C (5% CO2, 95% relative humidity) overnight, various concentrations of test compounds or CXCL11 (prepared in PBS, pH 7.4, containing 0.20% BSA) were added and the incubation continued for 4 h. Detection mix was then added and incubated for further 60 min at room temperature. Chemiluminescence was determined with a microplate reader Clariostar (BMG labtech, Ortenberg, Germany).
(§2) The ability of the novel ligands according to the present invention to induce CXCR3-mediated β-arrestin 2 recruitment was investigated in the assay system PathHunter (DiscoveRx), which detects the recruitment of β-amestin 2 to the activated receptor using β-galactosidase (β-gal) enzyme fragment complementation. The inventors used two different ProLink tags, ProLink1 (PK1) and ProLink2 (PK2), of which PK2 has higher affinity for the enzyme acceptor to detect weak protein-protein interactions. The CXCR3-PK2 construct is readily able to detect the differences in the propensity of CXCL11 and CXCL10 to induce β-arrestin 2 recruitment at CXCR3. […] Table 3. Ability of the 46/VUF10661 based positive allosteric modulators to activate the CXCR3 as measured in the β-arrestin 2 recruitment assay (PathHunter, DiscoveRx).[a]

CXCR3-PK2 = target: T3, CXCR3-PK2 (Homo sapiens, UniProt P49682); assay: β-arrestin 2 recruitment assay (PathHunter, DiscoveRx), CXCR3-PK2 construct; type: cell-based; details: for CXCR3-PK2 pEC50 ± SEM: HEK293-T cells, PathHunter
T3 construct: expressed in transfected cells
T3 sequence (P49682 1-368): T1 sequence (P49682 1-368)
Procedure: as §1, §2
To investigate the efficacy of identified partial agonists in the assay format, the inventors used the CXCR3-PK2 construct, which is characterized by higher sensitivity to detect β-arrestin 2 recruitment. The compounds which appeared as weak partial agonists under CXCR3-PK1 conditions appeared as strong partial agonists under CXCR3-PK2 conditions with the efficacy increased up to 80% (Table 4). FAUC1036 reached the efficacy of 66%. […] Table 4. Ability of the compound 5 based positive allosteric modulators to activate the CXCR3 as measured in the β-arrestin 2 recruitment assay (PathHunter, DiscoveRx).[a]

[1] = % of CXCL11 mediated effect, CXCR3-PK1, read-out: CXCR3-PK1 efficacy (%) (converted)
[2] = % of CXCL11 mediated effect, CXCR3-PK2, read-out: CXCR3-PK2 efficacy (%) (converted)

Row | SMILES | CXCR3 Efficacy (%) ± SEM (CXCR3) | Emax (CXCR3) | CXCR3 pEC50 ± SEM (CXCR3) | EC50 (CXCR3) | CXCR3-PK1 efficacy (%) (CXCR3-PK1; % of CXCL11 mediated effect, CXCR3-PK1) | Emax (CXCR3-PK1; [1]) | CXCR3-PK1 pEC50 ± SEM (CXCR3-PK1; CXCR3-PK1) | Emax (CXCR3-PK2; [2]) | CXCR3-PK2 pEC50 ± SEM (CXCR3-PK2; CXCR3-PK2) | CXCR3 pEC50 ± SEM (CXCR3; listed as 46/VUF10661, 2,2,2-trifluoroacetate) | CXCR3-PK1 pEC50 ± SEM (CXCR3-PK1; CXCR3-PK1, listed as 46/VUF10661, 2,2,2-trifluoroacetate) | higher efficacy than CXCL11 (CXCR3-PK1; β-arrestin 2 recruitment, relative to CXCL11) | Emax (CXCR3-PK1; read-out: CXCR3-PK1 efficacy (%)) | Emax (CXCR3-PK2; read-out: CXCR3-PK2 efficacy (%)) | CXCR3 mediated G protein activation (result in words) (CXCR3; [35S]GTPγS incorporation) | β-arrestin 2 recruitment, intrinsic agonism (result in words) (CXCR3-PK1)
1 | CC(C)(C)OC(=O)N[C@@H](CCCCNC(=O)[C@@H]1Cc2ccccc2CN1)C(=O)NCC(c1ccccc1)c1ccccc1 [Compound 5, Tert-butyl ((S)-1-((2,2-diphenylethyl)amino)-1-oxo-6-((S)-1,2,3,4-tetrahydroisoquinoline-3-carboxamido)hexan-2-yl)carbamate] | 34±8% | 34% | 5.7 ± 0.34 and 5.66±0.34 | 2200 nM | 31±2% | 31% | 6.50±0.17 | 79% | 6.71±0.33 |  |  |  |  |  |  | 
2 | CC(=O)CCC(=O)N1Cc2ccccc2C[C@H]1C(=O)NCCCC[C@H](NC(=O)OC(C)(C)C)C(=O)NCC(c1ccccc1)c1ccccc1 [Compound 12, Tert-butyl((S)-1-((2,2-diphenylethyl)amino)-1-oxo-6-((S)-2-(4-oxopentanoyl)-1,2,3,4-tetrahydroisoquinoline-3-carboxamido)hexan-2-yl)carbamate] | No effect |  | No effect |  |  | 34% | 6.78±0.17 | 63% | 6.64±0.33 |  |  |  |  |  |  | 
3 | CC(C)(C)OC(=O)N[C@@H](CCCCNC(=O)[C@@H]1Cc2ccccc2CN1C(=O)CCc1ccccc1)C(=O)NCC(c1ccccc1)c1ccccc1 [Compound 23, Tert-butyl((S)-1-((2,2-diphenylethyl)amino)-1-oxo-6-((S)-2-(3-phenylpropanoyl)-1,2,3,4-tetrahydroisoquinoline-3-carboxamido)hexan-2-yl)carbamate] |  | 30 ± 17% | 5.07±0.50 |  |  | 19% | 7.21±0.17 | 29% | 6.71±0.30 |  |  |  |  |  |  | 
4 | CC(C)(C)OC(=O)N[C@@H](CCCCNC(=O)[C@@H]1Cc2ccccc2CN1C(=O)CCCC(=O)c1ccccc1)C(=O)NCC(c1ccccc1)c1ccccc1 [Compound 24, Tert-butyl ((S)-1-((2,2-diphenylelhyl)amino)-1-oxo-6-((S)-2-(5-oxo-5-phenylpentanoyl)-1,2,3,4-tetrahydroisoquinoline-3-carboxamido)hexan-2-yl)carbamate] | No efffect |  | No effect |  |  |  | 6.84±1.7 |  | 6.78±0.35 |  |  |  | 20% | 56% |  | 
5 | CC(C)(C)OC(=O)N[C@@H](CCCCNC(=O)[C@@H]1Cc2ccccc2CN1C(=O)CCC(=O)O)C(=O)NCC(c1ccccc1)c1ccccc1 [Compound 27, 4-((S)-3-(((S)-5-((tert-butoxycarbonyl)amino)-6-((2,2-diphenylethyl)amino)-6-oxohexyl)carbamoyl)-3,4-dihydroisoquinolin-2(1H)-yl)-4-oxobutanoic acid] | No effect |  | No effect |  |  |  | No effect |  | No effect |  |  |  |  |  |  | no agonistic effect

The next lines start with results.

Row | CXCR3 Efficacy (%) ± SEM (CXCR3) | Emax (CXCR3) | CXCR3 pEC50 ± SEM (CXCR3) | EC50 (CXCR3) | CXCR3-PK1 efficacy (%) (CXCR3-PK1; % of CXCL11 mediated effect, CXCR3-PK1) | Emax (CXCR3-PK1; [1]) | CXCR3-PK1 pEC50 ± SEM (CXCR3-PK1; CXCR3-PK1) | Emax (CXCR3-PK2; [2]) | CXCR3-PK2 pEC50 ± SEM (CXCR3-PK2; CXCR3-PK2) | CXCR3 pEC50 ± SEM (CXCR3; listed as 46/VUF10661, 2,2,2-trifluoroacetate) | CXCR3-PK1 pEC50 ± SEM (CXCR3-PK1; CXCR3-PK1, listed as 46/VUF10661, 2,2,2-trifluoroacetate) | higher efficacy than CXCL11 (CXCR3-PK1; β-arrestin 2 recruitment, relative to CXCL11) | SMILES | Emax (CXCR3-PK1; read-out: CXCR3-PK1 efficacy (%)) | Emax (CXCR3-PK2; read-out: CXCR3-PK2 efficacy (%)) | CXCR3 mediated G protein activation (result in words) (CXCR3; [35S]GTPγS incorporation) | β-arrestin 2 recruitment, intrinsic agonism (result in words) (CXCR3-PK1)
6 | No effect |  | No effect |  |  | 17% | 6.80±0.21 | 27% | 6.51±0.34 |  |  |  | N[C@@H](CCCCNC(=O)[C@@H]1Cc2ccccc2CN1C(=O)CCC(=O)c1ccccc1)C(=O)NCC(c1ccccc1)c1ccccc1.O=C(O)C(F)(F)F [Compound 25, (S)-1-((2,2-diphenylethyl)amino)-1-oxo-6-((S)-2-(4-oxo-4-phenylbutanoyl)-1,2,3,4-tetrahydroisoquinoline-3-carboxamido)hexan-2-aminium 2,2,2-trifluoroacetate] |  |  | failed to induce CXCR3 mediated G protein activation | 
7 | No effect |  | No effect |  |  | 20% | 6.73±0.22 | 91% | 6.90±0.21 |  |  |  | N[C@@H](CCCCNC(=O)[C@@H]1Cc2ccccc2CN1C(=O)CCCC(=O)c1ccccc1)C(=O)NCC(c1ccccc1)c1ccccc1.O=C(O)C(F)(F)F [Compound 26, (S)-1-((2,2-diphenylethyl)amino)-1-oxo-6-((S)-2-(5-oxo-5-phenylpentanoyl)-1,2,3,4-tetrahydroisoquinoline-3-carboxamido)hexan-2-aminium 2,2,2-trifluoroacetate] |  |  |  | 
8 |  | 109 ± 3% |  | 600 nM |  | 139% |  |  |  | 6.2 ± 0.1 and 6.20±0.06 | 5.89 ± 0.07 | ~40% | NCCCC[C@H](NC(=O)[C@@H]1Cc2ccccc2CN1C(=O)CCC(=O)c1ccccc1)C(=O)NCC(c1ccccc1)c1ccccc1.O=C(O)C(F)(F)F [Compound 46, (S)-6-((2,2-diphenylethyl)amino)-6-oxo-5-((S)-2-(4-oxo-4-phenylbutanoyl)-1,2,3,4-tetrahydroisoquinoline-3-carboxamido)hexan-1-aminium 2,2,2-trifluoroacetate, reference compound] |  |  |  | 
